Assay results: PubChem BioAssay (NCI)
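Five compound concentrations were applied to cells in 96-well plates for 48 hours; endpoints were derived by simple linear interpolation of the resulting dose-response curve. GI50 = concentration required for 50% inhibition of growth. TGI denotes the concentration required for complete inhibition of growth.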

How the values were obtained:
Assay in all cases: DTP human tumour cell line panel, 48 h
HCT-116 colon = test system: HCT-116 colon
ACHN renal = test system: ACHN renal
SF-539 CNS = test system: SF-539 CNS
SK-MEL-2 melanoma = test system: SK-MEL-2 melanoma
SF-295 CNS = test system: SF-295 CNS
UACC-257 melanoma = test system: UACC-257 melanoma
M14 melanoma = test system: M14 melanoma
RXF 393 renal = test system: RXF 393 renal
SK-OV-3 ovarian = test system: SK-OV-3 ovarian
IGROV1 ovarian = test system: IGROV1 ovarian
CAKI-1 renal = test system: CAKI-1 renal
HL-60(TB) leukemia = test system: HL-60(TB) leukemia
RPMI-8226 leukemia = test system: RPMI-8226 leukemia
UACC-62 melanoma = test system: UACC-62 melanoma
NCI-H522 lung = test system: NCI-H522 lung
DU-145 prostate = test system: DU-145 prostate
HOP-92 NSCLC = test system: HOP-92 NSCLC
LOX IMVI melanoma = test system: LOX IMVI melanoma
KM12 colon = test system: KM12 colon
UO-31 renal = test system: UO-31 renal
OVCAR-5 ovarian = test system: OVCAR-5 ovarian
CCRF-CEM leukemia = test system: CCRF-CEM leukemia
SNB-75 CNS = test system: SNB-75 CNS
OVCAR-3 ovarian = test system: OVCAR-3 ovarian
OVCAR-4 ovarian = test system: OVCAR-4 ovarian
HCT-15 colon = test system: HCT-15 colon
U251 CNS = test system: U251 CNS
K-562 leukemia = test system: K-562 leukemia
SW-620 colon = test system: SW-620 colon
TK-10 renal = test system: TK-10 renal
HOP-62 NSCLC = test system: HOP-62 NSCLC
T-47D breast = test system: T-47D breast
A549 NSCLC = test system: A549 NSCLC
MALME-3M melanoma = test system: MALME-3M melanoma
MDA-MB-231 breast = test system: MDA-MB-231 breast
NCI/ADR-RES ovarian = test system: NCI/ADR-RES ovarian
EKVX NSCLC = test system: EKVX NSCLC
SNB-19 CNS = test system: SNB-19 CNS
SF-268 CNS = test system: SF-268 CNS
MCF7 breast = test system: MCF7 breast
OVCAR-8 ovarian = test system: OVCAR-8 ovarian
SR leukemia = test system: SR leukemia
HCC-2998 colon = test system: HCC-2998 colon
COLO 205 colon = test system: COLO 205 colon
PC-3 prostate = test system: PC-3 prostate
BT-549 breast = test system: BT-549 breast
HS 578T breast = test system: HS 578T breast
MOLT-4 leukemia = test system: MOLT-4 leukemia
MDA-N = test system: MDA-N
SK-MEL-5 melanoma = test system: SK-MEL-5 melanoma
NCI-H23 lung = test system: NCI-H23 lung
NCI-H460 lung = test system: NCI-H460 lung
SK-MEL-28 melanoma = test system: SK-MEL-28 melanoma
A498 renal = test system: A498 renal
HT29 colon = test system: HT29 colon
MDA-MB-435 = test system: MDA-MB-435
NCI-H226 lung = test system: NCI-H226 lung
SN12C renal = test system: SN12C renal
786-0 renal = test system: 786-0 renal
DMS 273 small cell lung = test system: DMS 273 small cell lung
HOP-18 NSCLC = test system: HOP-18 NSCLC
DMS 114 small cell lung = test system: DMS 114 small cell lung
SNB-78 CNS = test system: SNB-78 CNS
M19-MEL melanoma = test system: M19-MEL melanoma
DLD-1 colon = test system: DLD-1 colon
KM20L2 colon = test system: KM20L2 colon
LXFL 529 NSCLC = test system: LXFL 529 NSCLC
XF 498 CNS = test system: XF 498 CNS

Structure (SMILES): O=C1OC(c2ccc(O)c(Cl)c2)(c2ccc(O)c(Cl)c2)c2ccc(Br)c3cccc1c23 (tested in a mixture with another compound)
- TGI (HCT-116 colon): 36.3 µM
- GI50 (ACHN renal): 13.9 µM
- TGI (ACHN renal): 27.2 µM
- TGI (SF-539 CNS): 32.4 µM
- TGI (SK-MEL-2 melanoma): 42.1 µM
- TGI (SF-295 CNS): 36.6 µM
- TGI (UACC-257 melanoma): 34.8 µM
- TGI (M14 melanoma): 49.6 µM
- TGI (RXF 393 renal): 32.5 µM
- TGI (SK-OV-3 ovarian): 32.2 µM
- TGI (IGROV1 ovarian): 44.5 µM
- TGI (CAKI-1 renal): 29.2 µM
- GI50 (HL-60(TB) leukemia): 17.5 µM
- TGI (HL-60(TB) leukemia): 41.8 µM
- TGI (RPMI-8226 leukemia): 44.5 µM
- TGI (UACC-62 melanoma): 26.1 µM
- GI50 (NCI-H522 lung): 17.8 µM
- TGI (NCI-H522 lung): 35.7 µM
- TGI (DU-145 prostate): 46.8 µM
- TGI (HOP-92 NSCLC): 26.1 µM
- TGI (LOX IMVI melanoma): 40.3 µM
- TGI (KM12 colon): 42.2 µM
- TGI (UO-31 renal): 33.4 µM
- TGI (OVCAR-5 ovarian): 34.5 µM
- TGI (CCRF-CEM leukemia): 42.3 µM
- TGI (SNB-75 CNS): 37.8 µM
- TGI (OVCAR-3 ovarian): 21.8 µM
- TGI (OVCAR-4 ovarian): 11.6 µM
- TGI (HCT-15 colon): 44 µM
- TGI (U251 CNS): 38.2 µM
- TGI (K-562 leukemia): 46.2 µM
- TGI (SW-620 colon): 41.1 µM
- TGI (TK-10 renal): 37 µM
- TGI (HOP-62 NSCLC): 40.3 µM
- TGI (T-47D breast): 13.3 µM
- TGI (A549 NSCLC): 38.9 µM
- TGI (MALME-3M melanoma): 39.3 µM
- TGI (MDA-MB-231 breast): 29.4 µM
- TGI (NCI/ADR-RES ovarian): 32.5 µM
- TGI (EKVX NSCLC): 29.3 µM
- TGI (SNB-19 CNS): 44.4 µM
- TGI (SF-268 CNS): 31.3 µM
- TGI (MCF7 breast): 30.6 µM
- TGI (OVCAR-8 ovarian): 51.9 µM
- TGI (SR leukemia): 45.4 µM
- TGI (HCC-2998 colon): 35 µM
- TGI (COLO 205 colon): 23.1 µM
- TGI (PC-3 prostate): 28.8 µM
- TGI (BT-549 breast): 18.6 µM
- TGI (HS 578T breast): > 53.1 µM
- TGI (MOLT-4 leukemia): 41.8 µM
- TGI (MDA-N): 45.9 µM
- TGI (SK-MEL-5 melanoma): 31.3 µM
- TGI (NCI-H23 lung): 34.8 µM
- TGI (NCI-H460 lung): 34.7 µM
- TGI (SK-MEL-28 melanoma): 36 µM
- TGI (A498 renal): 31.7 µM
- TGI (HT29 colon): 29.3 µM
- TGI (MDA-MB-435): 34.3 µM
- TGI (NCI-H226 lung): 41.1 µM
- TGI (SN12C renal): 32 µM
- TGI (786-0 renal): 35.8 µM

Structure (SMILES): COc1cc2c(c(OC)c1OC)-c1[nH]ncc1CC2
- TGI (HCT-116 colon): > 100 µM
- TGI (ACHN renal): > 100 µM
- TGI (SF-539 CNS): > 100 µM
- TGI (SK-MEL-2 melanoma): > 100 µM
- TGI (SF-295 CNS): > 100 µM
- TGI (DMS 273 small cell lung): > 100 µM
- TGI (UACC-257 melanoma): > 100 µM
- TGI (M14 melanoma): > 100 µM
- TGI (SK-OV-3 ovarian): > 100 µM
- TGI (IGROV1 ovarian): > 100 µM
- TGI (HOP-18 NSCLC): > 100 µM
- TGI (DMS 114 small cell lung): > 100 µM
- TGI (CAKI-1 renal): > 100 µM
- TGI (HL-60(TB) leukemia): > 100 µM
- TGI (UACC-62 melanoma): > 100 µM
- TGI (SNB-78 CNS): > 100 µM
- TGI (HOP-92 NSCLC): > 100 µM
- TGI (LOX IMVI melanoma): > 100 µM
- TGI (M19-MEL melanoma): > 100 µM
- TGI (KM12 colon): > 100 µM
- TGI (UO-31 renal): > 100 µM
- TGI (OVCAR-5 ovarian): > 100 µM
- TGI (CCRF-CEM leukemia): > 100 µM
- TGI (SNB-75 CNS): > 100 µM
- TGI (OVCAR-3 ovarian): > 100 µM
- TGI (HCT-15 colon): > 100 µM
- TGI (U251 CNS): > 100 µM
- TGI (K-562 leukemia): > 100 µM
- TGI (SW-620 colon): > 100 µM
- TGI (TK-10 renal): > 100 µM
- TGI (HOP-62 NSCLC): > 100 µM
- TGI (A549 NSCLC): > 100 µM
- TGI (MALME-3M melanoma): > 100 µM
- TGI (EKVX NSCLC): > 100 µM
- TGI (SNB-19 CNS): > 100 µM
- TGI (SF-268 CNS): > 100 µM
- TGI (OVCAR-8 ovarian): > 100 µM
- TGI (SR leukemia): > 100 µM
- TGI (DLD-1 colon): > 100 µM
- TGI (HCC-2998 colon): > 100 µM
- TGI (COLO 205 colon): > 100 µM
- TGI (MOLT-4 leukemia): > 100 µM
- TGI (SK-MEL-5 melanoma): > 100 µM
- TGI (KM20L2 colon): > 100 µM
- TGI (NCI-H23 lung): > 100 µM
- TGI (NCI-H460 lung): > 100 µM
- TGI (LXFL 529 NSCLC): > 100 µM
- TGI (SK-MEL-28 melanoma): > 100 µM
- TGI (A498 renal): > 100 µM
- TGI (HT29 colon): > 100 µM
- TGI (XF 498 CNS): > 100 µM
- TGI (NCI-H226 lung): > 100 µM
- TGI (SN12C renal): > 100 µM
- TGI (786-0 renal): > 100 µM
